How the values were obtained:
Format in all cases: functional
B16 [1] = assay: Induction of cell cycle arrest in mouse B16 cells assessed as accumulation at S phase incubated for 24 hrs by PI staining based flow cytometry analysis (reference value: 42.53 %)
B16 [2] = assay: Induction of cell cycle arrest in mouse B16 cells assessed as accumulation at G0/G1 phase incubated for 24 hrs by PI staining based flow cytometry analysis (reference value: 56.59 %)
A-375 [3] = assay: Induction of cell cycle arrest in human A-375 cells assessed as accumulation at G2/M phase incubated for 24 hrs by PI staining based flow cytometry analysis (reference value: 8.87 %)
A-375 [4] = assay: Induction of cell cycle arrest in human A-375 cells assessed as accumulation at S phase incubated for 24 hrs by PI staining based flow cytometry analysis (reference value: 34.44 %)
B16 [5] = assay: Induction of cell cycle arrest in mouse B16 cells assessed as accumulation at G2/M phase incubated for 24 hrs by PI staining based flow cytometry analysis (reference value: 0.88 %)
A-375 [6] = assay: Induction of cell cycle arrest in human A-375 cells assessed as accumulation at G0/G1 phase incubated for 24 hrs by PI staining based flow cytometry analysis (reference value: 56.69 %)

## N#C/C(=C\c1ccc(O)c(O)c1)C(=O)NCc1ccccc1
B16 [1]
  Activity: 15.11%
B16 [2]
  Activity: 82.17%
A-375 [3]
  Activity: 6.92%
A-375 [4]
  Activity: 31.61%
B16 [5]
  Activity: 2.72%
A-375 [6]
  Activity: 61.48%
